Format in all cases: cell-based
In series [1] the test system is influenza virus (A/WSN/33 (H1N1) strain). The series is described as follows: CPE suppression effect confirmation test (influenza virus, RPMI 2650 cells), antiviral activity. As to conditions: for EC50: read-out: Influenza EC50 (50% CPE inhibitory concentration), A/WSN/33 (H1N1), 3 to 6 days.
A short description of series [2]: Cytotoxic activity evaluation, RPMI 2650 cells. As to conditions: human, no virus, 3 to 6 days. The protocol:
(§1) <Operation Procedure (Cytotoxic Activity Evaluation)>
On the day before the compound treatment, cells prepared to an appropriate number were seeded in a 96 well plate at 100 μL/well. Thereafter, the cells were cultured in a CO2 incubator at 37° C. • Preparation of 2 μg/mL trypsin/0.5% BSA/MEM
Same as those described in the section for evaluation of antiviral activity • Dilution and dispensing of test substance
A 3- to 5-fold serial dilution series of test substances was prepared in DMSO in advance, and diluted with 2 μg/mL trypsin/0.5% BSA/MEM so that the final concentration of DMSO was 0.5% (100 to 200 μL/well). The cells were washed with MEM, and then cultured in a test substance-added medium for 3 to 6 days. Double measurement was performed for each drug. • Dispensing of resazurin solution
Same as those described in the section for evaluation of antiviral activity • Measurement of fluorescence intensity
(§2) Same as those described in the section for evaluation of antiviral activity
[formula] [formula] • Calculation of Selectivity Index (SI)

Series [3] concerns SARS-CoV-2 (hCoV-19/Japan/TY/WK-521/2020 strain). Briefly: CPE suppression effect confirmation test (SARS-CoV-2, Vero E6/TMPRSS2 cells), antiviral activity. As to conditions: for EC50: Severe acute respiratory syndrome coronavirus 2, VeroE6/TMPRSS2, 72 h, read-out: SARS-CoV-2 EC50 (50% CPE inhibitory concentration), 3 days culture.
Series [4] is described as follows: Cytotoxic activity evaluation, Vero E6/TMPRSS2 cells. As to conditions: African green monkey, no virus. The protocol:
as §1
A 3- to 5-fold serial dilution series of test substances was prepared in DMSO, diluted with 2% FBS/MEM so that the concentration of DMSO was 2%, and dispensed into a 96 well plate (50 μL/well, DMSO final concentration 0.5%). • Dilution and dispensing of cells
The cells prepared to an appropriate number were seeded at 100 μL/well to the plate into which the test substance was dispensed. Thereafter, the cells were cultured in a CO2 incubator at 37° C. for 3 days. • Dispensing of CellTiter-Glo (registered trademark) 2.0 Reagent
Same as those described in the section for evaluation of antiviral activity • Measurement of luminescence intensity
as §2
Excel, TIBCO Spotfire, or a program having equivalent calculation processing capability based on the following calculation formula.

Series [5] relates to SARS-CoV-2 (hCoV-19/Japan/TY/WK 521/2020 strain). Briefly: microbe, parasite or virus in culture. The conditions noted are these: HEK293T/ACE2-TMPRSS2 cells; for EC50: Severe acute respiratory syndrome coronavirus 2, HEK-293T, 72 h, read-out: SARS-CoV-2 EC50 (50% CPE inhibitory concentration), 293T-AT, 3 days culture.

Regarding `Nc1ncnc2c([C@@H]3O[C@H](CO)[C@@H](O)[C@H]3F)c[nH]c12` [Compound I-002], in series [1], the “Influenza SI (Selectivity Index)” value is reported as over 105 and the EC50 was 4.77 µM. The 50% cytotoxic concentration (CC50) in series [2] is over 500 µM.
As to `Nc1ncnn2c([C@@H]3N[C@H](CO)[C@@H](O)C3(F)F)ccc12` [Compound I-003], in series [1], the “Influenza SI (Selectivity Index)” value is over 22.1 and the EC50 is 22.6 µM. The CC50 in series [2] is over 500 µM.
On to `Nc1nc(F)nn2c([C@@H]3N[C@H](CO)[C@@H](O)[C@H]3O)ccc12` [Compound I-004], for which, in series [1], the “Influenza SI (Selectivity Index)” value is over 2.06 and the EC50 was found to be 243 µM. The same compound had a CC50 in series [2] of over 500 µM.
In the case of `Cc1nc(N)c2ccc([C@@H]3N[C@H](CO)[C@@H](O)[C@H]3O)n2n1.Cl.Cl` [Compound I-005], in series [1], the “Influenza SI (Selectivity Index)” value is on record as over 2.13 and the EC50 worked out at 235 µM. This compound also gave a cytotoxic concentration (CC50) in series [2] of over 500 µM.
As to `Nc1ncnn2c([C@@H]3N[C@H](CO)[C@@H](O)[C@H]3O)cc(F)c12` [Compound I-006], in series [1], the “Influenza SI (Selectivity Index)” value came to 17 and the EC50 stood at 0.316 µM. In series [2], this compound had a CC50 of 5.38 µM.
The matching figures for `CCC1[C@@H](c2ccc3c(N)ncnn23)[C@H](O)[C@H](O)[C@H]1CO` (stereo partly drawn) [Compound I-007]: 1.06, 473 µM and over 500 µM.
On to `Nc1ncnn2c([C@@H]3N[C@@H](CO)[C@@H](O)[C@H]3F)ccc12` [Compound I-009], for which, in series [1], the “Influenza SI (Selectivity Index)” value amounted to 1.23 and the EC50 was determined as 406 µM. In series [2], the 50% cytotoxic concentration (CC50) was over 500 µM.
Consider `Cl.Nc1ncnn2c([C@@H]3N[C@H](CO)[C@@H](O)[C@H]3O)cc(B(O)O)c12` [Compound I-011], for which, in series [1], the “Influenza SI (Selectivity Index)” value is 11.2 and the EC50 worked out at 6.7 µM. In series [2], this compound returned a cytotoxic concentration (CC50) of 75.1 µM.
The matching figures for `Nc1ncnc2c([C@@H]3N[C@H](CO)[C@@H](O)[C@H]3O)ccn12` [Compound I-012]: over 281, 1.78 µM and over 500 µM.
The matching figures for `Nc1ncnn2c([C@@H]3N[C@H](CO)[C@@H](O)[C@H]3F)ccc12` [Compound I-013]: over 1.99, 251 µM and over 500 µM.
As to `Nc1ncnc2c([C@@H]3O[C@H](CO)[C@@H](O)[C@H]3O)ccn12` [Compound I-014], in series [1], the “Influenza SI (Selectivity Index)” value came out at 69.7 and the EC50 was determined as 0.188 µM. Also, in series [2], half-maximal cytotoxicity (CC50) was put at 13.1 µM.
For the compound `N=C(N)c1cc([C@@H]2N[C@H](CO)[C@@H](O)[C@H]2O)n2ncnc(N)c12` [Compound I-017], in series [3], the “SARS-CoV-2 SI (Selectivity Index)” value is over 11.1 and the EC50 amounted to 44.9 µM. Further, the CC50 at 3 days in series [4] is over 500 µM.
`O=c1[nH]cnn2c([C@@H]3N[C@H](CO)[C@@H](O)[C@H]3O)ccc12` [Compound I-019]: in series [1], the “Influenza SI (Selectivity Index)” value is given as over 7.62 and the EC50 turned out to be 65.6 µM. The compound further registered a CC50 in series [2] of over 500 µM.
As to `Cl.Nc1ncnn2c([C@@H]3N[C@H](CO)[C@@H](O)[C@H]3O)cc(-c3nccs3)c12` [Compound I-021], in series [1], the “Influenza SI (Selectivity Index)” value was over 20.9 and the EC50 came to 23.9 µM. The same compound had a CC50 in series [2] of over 500 µM.
On to `Nc1ncnn2c([C@@H]3N[C@H](CO)[C@@H](O)[C@H]3O)cc(/C=N\O)c12` [Compound I-026], for which, in series [1], the “Influenza SI (Selectivity Index)” value is reported as over 518 and the EC50 worked out at 0.965 µM. Besides, the CC50 in series [2] is over 500 µM.
The like results for `Nc1ncnn2c([C@@H]3N[C@H](CO)[C@@H](O)[C@H]3O)cc(-c3cncs3)c12` [Compound I-027] were, in that order, over 48.5, 10.3 µM and over 500 µM.
Take `N#CCc1cc([C@@H]2N[C@H](CO)[C@@H](O)[C@H]2O)n2ncnc(N)c12` [Compound I-028]: in series [1], the “Influenza SI (Selectivity Index)” value was determined as 20.6 and the EC50 amounted to 4.95 µM. Also, in series [2], the CC50 came out at 102 µM.
On to `Cl.Nc1ncnn2c([C@@H]3N[C@H](CO)[C@@H](O)[C@H]3O)cc(-c3ccn[nH]3)c12` [Compound I-029], for which, in series [3], the “SARS-CoV-2 SI (Selectivity Index)” value was determined as 9.01 and the EC50 turned out to be 34.7 µM. The midpoint of cytotoxicity in series [4], the CC50 at 3 days, lay at 316 µM.
Turning to `Nc1ncnc2c([C@@H]3N[C@H](CO)[C@@H](O)[C@H]3O)cc(/C=N/O)n12` [Compound I-031], in series [1], the “Influenza SI (Selectivity Index)” value was over 1.46 and the EC50 is 343 µM. This compound showed a CC50 in series [2] of over 500 µM.
Consider `Cl.Nc1ncnn2c([C@H]3N[C@@H](CO)[C@H](O)[C@@H]3O)cc(B(O)O)c12` [Compound I-032], for which, in series [1], the “Influenza SI (Selectivity Index)” value was over 1.38 and the EC50 was found to be 361 µM. Besides, the CC50 in series [2] was over 500 µM.
As for `Nc1ncnn2c([C@@H]3N[C@H](CO)[C@@H](O)[C@H]3O)cc(-c3ncc[nH]3)c12` [Compound I-033], in series [3], the “SARS-CoV-2 SI (Selectivity Index)” value was over 134 and the EC50 was determined as 3.74 µM. Further, the CC50 at 3 days in series [4] is over 500 µM.
With `OC[C@H]1N[C@@H](c2ccn3c(NO)ncnc23)[C@H](O)[C@@H]1O` [Compound I-035], in series [1], the “Influenza SI (Selectivity Index)” value is over 1.33 and the EC50 was determined as 375 µM. The compound also had a cytotoxic concentration (CC50) in series [2] of over 500 µM.
Take `Cn1cnc(-c2cc([C@@H]3N[C@H](CO)[C@@H](O)[C@H]3O)n3ncnc(N)c23)c1` [Compound I-039]: in series [3], the “SARS-CoV-2 SI (Selectivity Index)” value was over 6.02 and the EC50 stood at 83.1 µM. Moreover, in series [4], the CC50 at 3 days was over 500 µM.
For `Cl.Cn1cc(-c2cc([C@@H]3N[C@H](CO)[C@@H](O)[C@H]3O)n3ncnc(N)c23)nn1` [Compound I-040], in series [3], the “SARS-CoV-2 SI (Selectivity Index)” value was over 5.93 and the EC50 amounted to 84.3 µM. In series [4], this compound had a half-maximal cytotoxic concentration (CC50) at 3 days of over 500 µM.
`Nc1ncnn2c([C@@H]3N[C@H](CO)[C@@H](O)[C@H]3O)cc(-c3cccnc3)c12` [Compound I-041]: in series [1], the “Influenza SI (Selectivity Index)” value is on record as over 76.2 and the EC50 is 5.56 µM. In series [2], this compound displayed a CC50 of over 500 µM.
In the case of `N#C[C@@]1(c2cnc3c(N)ncnn23)O[C@H](CO)[C@@H](O)C1O` (stereo partly drawn) [Compound I-042], in series [3], the “SARS-CoV-2 SI (Selectivity Index)” value is given as over 6.66 and the EC50 stood at 75.1 µM. In series [4], this compound returned a CC50 at 3 days of over 500 µM.
As to `Cc1cnc(-c2cc([C@@H]3N[C@H](CO)[C@@H](O)[C@H]3O)n3ncnc(N)c23)s1` [Compound I-043], in series [1], the “Influenza SI (Selectivity Index)” value is recorded as over 2.46 and the EC50 worked out at 203 µM. The compound further registered a 50% cytotoxic concentration (CC50) in series [2] of over 500 µM.
Regarding `CCn1cc(-c2cc([C@@H]3N[C@H](CO)[C@@H](O)[C@H]3O)n3ncnc(N)c23)cn1.Cl` [Compound I-044], in series [3], the “SARS-CoV-2 SI (Selectivity Index)” value was 16.6 and the EC50 came out at 22.6 µM. Further, the cytotoxic concentration (CC50) at 3 days in series [4] came to 444 µM.
The matching figures for `Cl.Nc1ncnn2c([C@@H]3N[C@H](CO)[C@@H](O)[C@H]3O)cc(-c3nc4ccccc4s3)c12` [Compound I-045]: 25.4, 3.78 µM and 96 µM.
The like results for `N#C[C@@]1(c2ccn3c(N)ncnc23)O[C@H](CO)[C@@H](O)[C@H]1O` [Compound I-046] were, in that order, 15.6, 31.1 µM and 485 µM.
On to `N#C[C@@]1(c2ccc3c(N)ncnn23)O[C@H](CO)[C@@H](O)[C@H]1O` [GS-441524, reference compound], for which the EC50 in series [1] is over 500 µM.
On to `Nc1ncnc2c([C@@H]3N[C@H](CO)[C@@H](O)[C@H]3O)c[nH]c12` [Galidesivir, reference compound], for which, in series [3], the EC50 was over 100 µM. Besides, in series [5], the “SARS-CoV-2 SI (Selectivity Index), 293T-AT” value is under 5.3 and the EC50 is over 20 µM.
`Nc1ncnc2c([C@@H]3N[C@H](CO)[C@@H](O)[C@H]3O)cnn12` [WO2006002231 Example 13_9-4, reference compound]: in series [1], the “Influenza SI (Selectivity Index)” value turned out to be 4.69 and the EC50 came to 87.8 µM.
`Nc1ncnn2c([C@@H]3N[C@H](CO)[C@@H](O)[C@H]3O)ccc12` [WO2014078778 Example5_30 g, reference compound]: in series [1], the “Influenza SI (Selectivity Index)” value turned out to be 73.7 and the EC50 was 0.471 µM. In series [3], the “SARS-CoV-2 SI (Selectivity Index)” value was under 0.41 and the EC50 is over 4 µM. For the same compound, in series [5], the “SARS-CoV-2 SI (Selectivity Index), 293T-AT” value was under 1.34 and the EC50 was over 4 µM.

Values taken from patent US20250170155A1, “NUCLEOSIDE DERIVATIVES AND PRODRUGS THEREOF HAVING VIRAL GROWTH INHIBITORY ACTION” (Shionogi & Co., Ltd., priority 2021, published 2025).
